Laboratory results: paper PMC8596838, “Xylose‐Configured Cyclophellitols as Selective Inhibitors for Glucocerebrosidase” (Chembiochem, 2021)
Where two headings read alike, the source gives them in different places.

Legend:
GBA3 [1] = biological target: T1, GBA3 (Homo sapiens, UniProt Q9H227); assay: Fluorogenic substrate enzymatic assay, lysate of GBA/GBA2 KO HEK293T cells overexpressing GBA3; assay type: biochemical; conditions: for (Ratio) GBA3/GBA: IC50 ratio
T1 construct: expressed in transfected cells; host or cells: HEK293T (GBA/GBA2 KO background for the fluorogenic assay; endogenous-GBA background with GBA2 and GBA3 overexpressed for ABPP and intact-cell assays)
T1 sequence (Q9H227 1-469): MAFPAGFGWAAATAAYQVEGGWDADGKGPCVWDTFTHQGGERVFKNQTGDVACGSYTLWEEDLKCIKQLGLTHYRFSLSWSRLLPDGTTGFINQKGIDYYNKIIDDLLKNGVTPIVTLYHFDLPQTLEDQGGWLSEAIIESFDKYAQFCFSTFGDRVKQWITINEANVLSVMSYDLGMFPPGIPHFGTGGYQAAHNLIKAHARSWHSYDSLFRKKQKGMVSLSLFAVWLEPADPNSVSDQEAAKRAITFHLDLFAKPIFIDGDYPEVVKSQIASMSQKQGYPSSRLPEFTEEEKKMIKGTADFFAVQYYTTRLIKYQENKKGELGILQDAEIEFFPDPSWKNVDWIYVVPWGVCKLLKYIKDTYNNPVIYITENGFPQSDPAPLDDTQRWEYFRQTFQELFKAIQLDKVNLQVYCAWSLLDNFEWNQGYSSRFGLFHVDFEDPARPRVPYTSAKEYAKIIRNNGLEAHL
Experimental: Using fluorogenic substrate‐based assays, we determined apparent IC50 values at 30 min incubation time of the xylo‐cyclophellitols in rhGBA, and GBA2 and GBA3 lysates of cells expressing only each of the enzymes specifically.
Enzyme activity assays: All assays were performed with lysates of HEK293T cells or zebrafish larvae in 96‐well plates at 37 °C. Samples were diluted with McIlvaine buffer (150 mM citric acid‐Na2HPO4) to a final volume of 25 μL, at pH appropriate for each enzyme. Assays were performed by incubating the samples with 100 μL 4‐methylumbelliferyl‐β‐D‐glucoside substrates diluted in McIlvaine buffer (with 0.1 % (w/v) bovine serum albumin (BSA)) for a period of 30 min or 3 h. The substrate mixtures used for each enzyme were as follows: GBA, 3.75 mM 4‐MU‐β‐D‐glucopyranoside (Glycosynth, Warrington Cheshire, UK) at pH 5.2, supplemented with 0.2 % (w/v) sodium taurocholate, 0.1 % (v/v) Triton X‐100, 0.1 % (w/v) bovine serum albumin (BSA); GBA2, 3.75 mM 4 MU‐β‐D‐glucopyranoside at pH 5.8; GBA3, 3.75 mM 4‐MU‐β‐D‐glucopyranoside at pH 6.0. After stopping the enzyme reaction with 200 μL 1 M NaOH‐glycine (pH 10.3), 4‐methylumbelliferone fluorescence was measured with a fluorimeter LS55 (Perkin Elmer, Waltham, MA, USA) with λEX 366 nm and λEM 445 nm. Enzyme activities were determined by subtraction of background (measured for incubations without enzyme). IC50 values were determined exactly as earlier described.[36]
The IC50 values were determined using a fluorogenic enzymatic assay. For GBA, 3.16 ng (53 fmol) of rhGBA, (recombinant human GBA, Imiglucerase) obtained from Sanofi Genzyme (Cambridge, MA, USA), was prepared in 12.5 μL McIlvaine buffer (150 mM, pH 5.2) supplemented with 0.1 % (v/v) Triton X‐100, and 0.2 % (w/v) sodium taurocholate, 0.1 % (w/v) bovine serum albumin (BSA). The enzyme was incubated with 12.5 μL of inhibitors diluted in McIlvaine buffer (150 mM, pH 5.2) at 37 °C for 30 min. In the case of GBA2 or GBA3, lysates of GBA/GBA2 KO HEK293T cells overexpressing GBA2 or GBA3, respectively where used. The enzymatic activity of GBA, GBA2 and GBA3 were measured with 4MU‐β‐D‐glucoside substrate as described above.

GBA3 [2] = biological target: T1, GBA3; assay: Competitive ABPP (cABPP) with ABP 10 in HEK293T cell lysates, GBA3; assay type: biochemical; conditions: cell lysate, 30 min incubation
Experimental: In the first instance, the inhibitory potency of 1 and 2 for GBA, GBA2, and GBA3 was assessed by competitive activity‐based protein profiling (cABPP). For this, we first generated HEK293T cells that contain endogenous GBA and overexpress human GBA2 and GBA3.
Figure 3 Selectivity of compounds visualized by competitive ABPP labeling of β‐D‐glucosidase. Lysates of HEK293T cells expressing human GBA, GBA2 and GBA3 were incubated with compounds 1–5 at indicated concentrations for 30 min, following by cABPP with ABP 10.
ABP labeling procedure: Glycosidases were labeled with excess fluorescent ABPs at optimum conditions. ABP labeling was performed at 37 °C for 30 min for all materials (if not otherwise stated), in a total sample volume of 20–40 μL and 0.5–1 % DMSO concentration. GBA was labeled with 200 nM ABP 9 (pH 5.2, 0.1 % (v/v) Triton‐100, 0.2 % (w/v) sodium taurocholate), or labeled together with GBA2 using 200 nM β‐D‐glucose‐configured aziridine ABP 10 at pH 5.8, or labeling together with GBA2 and GBA3 using 200 nM β‐D‐glucose‐configured aziridine ABP 10 at pH 6.0. After ABP incubation, proteins were denatured by boiling the samples with 5× Laemmli buffer (50 % (v/v) 1 M Tris‐HCl, pH 6.8, 50 % (v/v) 100 % glycerol, 10 % (w/v) DTT, 10 % (w/v) SDS, 0.01 % (w/v) bromophenol blue) for 5 min at 98 °C, and separated by electrophoresis on 10 % (w/v) SDS‐PAGE gels running continuously at 90 V. Wet slab‐gels were scanned on fluorescence using the Typhoon FLA 9500 (GE Healthcare) at λEX 473 nm and λEM≥510 nm for green fluorescent ABP 8; and at λEX 635 nm and λEM≥665 nm for ABP 6, 9 and 10. ABP‐emitted fluorescence was quantified using ImageQuant software (GE Healthcare, Chicago, IL, USA) and curve‐fitted using Prism 8.0 (GraphPad Software). After fluorescence scanning, SDS‐PAGE gels were stained for total protein with Coomassie G250 and scanned on a ChemiDoc MP imager (Bio‐Rad, Hercules, CA, USA).[25]

[3] = incubation time 30 min, enzymatic assay, ±SD, n=3, read-out: In vitro apparent IC50 GBA3

SMILES	(Ratio) GBA3/GBA (GBA3 [1]; in vitro, 30 min)	IC50 (GBA3 [1]; [3]) [µM]	competition of ABP 10 labeling of GBA3 (GBA3 [2])	IC50 (GBA3 [1]; 30 min incubation time, read-out: apparent IC50 GBA3) [µM]	potency against GBA3 compared to unsubstituted xylo-cyclophellitol aziridine 2 (GBA3 [1]; in vitro, 30 min) [fold]
O[C@@H]1[C@@H](O)[C@H](O)C[C@H]2N[C@@H]12 [compound 2, β‐D‐xylo‐Cyclophellitol aziridine]	>35	> 25			
CN1/C(=C/C=C/C=C/C2=[N+](CCCCCC(=O)NCc3cn(CCCCCCCCN4[C@H]5[C@H](O)[C@@H](O)[C@H](O)C[C@H]54)nn3)c3ccccc3C2(C)C)C(C)(C)c2ccccc21 (some centres unmarked) [ABP 6]	1561	10.1 ± 1			
O[C@@H]1[C@@H](O)[C@H](O)C[C@H]2O[C@@H]12 [compound 1, xylo‐cyclophellitol]	>19	> 50	but not that of GBA2 or GBA3	> 25	
OC[C@@H]1[C@@H](O)[C@H](O)[C@@H](O)[C@@H]2O[C@H]12 [compound 3, cyclophellitol]	129	51.5 ± 4.01	with less potency		
OC[C@@H]1[C@@H](O)[C@H](O)[C@@H](O)[C@@H]2N[C@H]12 [compound 4, cyclophellitol aziridine, reference compound]	99	33.8 ± 2.43	with less potency		
[N-]=[N+]=NCCCCCCCCN1[C@H]2[C@H](O)[C@@H](O)[C@H](O)C[C@H]21 (some centres unmarked) [compound 5]	486	0.583 ± 0.202	greatly enhances inhibitory potency		> 40
CN1/C(=C/C=C/C=C/C2=[N+](CCCCCC(=O)NCc3cn(C[C@@H]4[C@@H](O)[C@H](O)[C@@H](O)[C@@H]5O[C@H]45)nn3)c3ccccc3C2(C)C)C(C)(C)c2ccccc21 [ABP 9, reference compound]	128	5.78 ± 0.079			
